Columns and labels:
[1] = cytotoxicity MTT assay in BE(2)-M17 cells; format: cell-based, human; conditions: human, BE(2)-M17 neuroblastoma cells, MTT, 1–100 μM, 24 h
Description: (§1) Human HMC3 microglial (CRL-3304) and neuroblastoma BE(2)-M17 (CRL-2267) cells were obtained from American Type Culture Collection. BE(2)-M17 develops a better dopaminergic phenotype than SH-SY5Y when treated with retinoic acid to direct neuronal differentiation (Carvajal-Oliveros et al., [2022]). Cells were routinely maintained in Dulbecco's Modified Eagle Medium-Nutrient Mixture F12 (DMEM-F12) supplemented with 10% fetal bovine serum (FBS; Thermo Fisher Scientific, Waltham, MA, USA) in a 37°C incubator, with 95% relative humidity and 5% CO2 (NuAire, Plymouth, MN, USA).
(§2) To evaluate cytotoxicity of LM compounds and MPP^+, HMC3 (1 × 10^4) or BE(2)-M17 (2 × 10^4) cells were plated on 96-well dishes, grown for 20 h, and treated with LM compounds (1–100 μM) or MPP^+ [HMC3: 0–8 mM; BE(2)-M17: 0–5 mM]. Next day, 20 μl of tetrazolium dye 3-(4,5-dimethylthiazol-2-yl)-2,5-diphenyltetrazolium bromide (MTT, 5 mg/ml; Sigma-Aldrich) was added to the cells at 37°C for 3 h. The resulted insoluble purple formazan products were dissolved by lysis buffer (composition: 10% Triton X-100, 0.1 N HCl, 18% isopropanol). The absorbance of the dissolved product at optical density (OD) 570 nm was read by using a FLx800 fluorescence microplate spectrophotometer (Bio-Tek, Winooski, VT, USA). The half maximal inhibitory concentration (IC50) of LM compounds was determined through the construction of a dose-response curve. MPP^+ at 4 mM (HMC3 cell viability: 65%−69%) or 0.62 mM [BE(2)-M17 cell viability: 79%−84%] was selected to induce inflammation for further experiments.

[2] = cytotoxicity MTT assay in HMC3 cells; format: cell-based, human; conditions: human, HMC3 microglial cells, MTT, 1–100 μM, 24 h
Description: as §1, §2

[3] = DPPH free radical scavenging activity; conditions: 10–160 μM, 30 min, room temperature
Description: Stable 1,1-diphenyl-2-picrylhydrazyl (DPPH) radical in ethanol (100 μM; Sigma-Aldrich) was used to measure the antioxidant activity of these LM compounds. After addition of quercetin (positive control) or LM compound (10–160 μM), the mixture was vortexed for 15 s and incubated at room temperature for 30 min. Subsequently, the mixture was measured spectrophotometrically at 517 nm (Multiskan GO microplate spectrophotometer; Thermo Fisher Scientific). The free radical scavenging activity was calculated as the percentage of DPPH discoloration using the formula 1 – (absorbance of sample/absorbance of control) × 100%, with half maximal effective concentration (EC50) calculated using the interpolation method.

[4] = oxygen radical antioxidant capacity (OxiSelect kit); conditions: at 4–100 μM concentration
Description: The test of oxygen radical antioxidant capacity (Ou et al., [2001]) was performed using OxiSelect™ kit (Cell Biolabs, San Diego, CA, USA). Briefly, trolox standards (2.5–50 μM) and LM compounds (4–100 μM) were prepared using a serial dilution in a mixture containing 50% acetone and 50% water. After adding fluorescein to blank (50% acetone/50% water), standards, or samples, the mixture was mixed and incubated at 37°C for 30 min. Subsequently, free radical initiator 2,2′-azobis(2-methylpropionamidine) dihydrochloride (AAPH) was added to generate peroxyl radicals (ROO•). The quenching of fluorescent probe over time was recorded at 480 nm excitation and 520 nm emission for 60 min (Bio-Tek FLx800). To quantify the oxygen radical absorbance capacity, the area under the curve (AUC) for blank, standard and samples were calculated. After subtraction of the blank, trolox equivalent (μM) of samples were determined using a calibration curve with trolox standards.

COc1ccccc1/C=C/C(=O)c1c(O)c2ccccc2oc1=O [LM-009]
IC50 at 24 h [1]: > 100 µM | IC50 at 24 h [2]: > 100 µM

O=c1c(O)c(-c2ccc(O)c(O)c2)oc2cc(O)cc(O)c12 [Quercetin, reference compound]
EC50 [3]: 21 µM | oxygen radical antioxidant capacity, trolox equivalent [4]: 14 to 39 µM

Source: article PMC11473416, “Coumarin-chalcone derivatives as dual NLRP1 and NLRP3 inflammasome inhibitors targeting oxidative stress and inflammation in neurotoxin-induced HMC3 and BE(2)-M17 cell models of Parkinson's disease” (Frontiers in Aging Neuroscience, 2024)
